The results in this text go back to US11337950B2, “Biologically active cannabidiol analogs” (University of Mississippi, priority 2016, dated 2022).

The subject of series [1] is cisplatin-induced tactile allodynia. Briefly: Cisplatin-induced tactile allodynia model, electronic von Frey (Examples 23, 24). To be noted: mice. Type of series: in vivo, C57BL/6 mice.
Series [2] has as its system morphine place preference. Description: Morphine conditioned place preference, model of addiction (Example 25). To be noted: mice.
Series [3] can be described thus: Solubility of CBD and its analogs in Tocrisolve emulsion. Type of series: physicochemical. To be noted: for Maximum solubility achieved in Tocrisolve: as the substance itself. On the procedure:
Formulations: 0.5% w/v CBD equivalent in Tocrisolve emulsion.
Tocrisolve composition: […] emulsion composed of a 1:4 ratio of soya oil/water that is emulsified with the block co-polymer Pluronic F68. Manufacturing process for the Tocrisolve emulsion: • Add accurately weighed amount of drug a glass vial. • Add required volume of Torcisolve blank emulsion to each vial • Vortex each vial for 5 minutes. • Sonicate each vial for 10 minutes. • Centrifuge each vial for 5 minutes at 9000 rpm at 25° C. • Collect the supernatant and analyze for CBD, CBD-Val Mono and CBD-Val-HS mono as applicable.

Series [4] is described as follows: In vivo eye tissue levels 90 min after topical application in Tocrisolve emulsion (Examples 12-14). To be noted: for concentration at 90 min: male, New Zealand albino, 90 min post topical 50 μL Tocrisolve emulsion; for Penetration into the ocular tissues, in words (Example 14): topical Tocrisolve emulsion. Also noted: species or system New Zealand albino rabbits. On the procedure: Conscious male New Zealand albino rabbits were used. The formulations were applied topically into the rabbits eyes (50 μL containing the equivalent of 250 μg CBD) in Tocrisolve® emulsion formulations as described in Example 11. The animals were sacrificed 90 min. after drug application and the eye tissues harvested for analysis.
The same procedure was followed as shown under Example 12. Additional CBD analogs were tested in this example. In this example the tissue levels of both free CBD and intact analog were determined.
Formulations: Fifty microlitres of 0.5% w/v CBD in Tocrisolve emulsion (Dose: 0.25 mg)
Animal model: Conscious male new Zealand albino rabbits, Duration of the study: 90 min.
Aqueous humor, Vitreous humor, Retina-Choroid and Iris-Ciliary bodies analysed for parent compound as well as CBD.
Formulations: Fifty microlitres of 0.5% w/v Tocrisolve emulsion formulations (Dose: 0.25 mg)
Animal model: Conscious male new Zealand albino rabbits, Duration of the study: 90 min

The format of series [5] is physicochemical. To be noted: for Concentration of CBD / Concentration of Δ^9-THC: CBD incubated, 37° C.; for Stability under acidic (gastric juice) conditions, in words: pH 1.2, 37° C.; for Stability under physiologic / intestinal juice conditions, in words: pH 7.4, 37° C. On the procedure: The stability CBD and CBD analogs (CBD-Mono-VHS and CBD-Di-VHS) was evaluated under acidic and alkaline conditions to simulate exposure to gastric and intestinal fluids. The procedure is outlined as follows: • 1. Stock solution of 5 mg/mL CBD, CBD-Mono-Val-Mono HS, CBD-Di-Val-Di HS was prepared. • 2. Simulated Gastric Fluid (pH 1.2)+1% (SDS) was prepared and kept in 37° C. water bath. • 3. Physiological buffer (pH 7.4)+1% SDS was prepared and kept in 37° C. water bath. • 4. 100 μL of CBD, CBD-Mono-Val-Mono HS or CBD-Di-Val-Di-HS stock in acetonitrile (equivalent to 500 μg) was spiked into separate vials containing 5 ml of either pH 1.2 and 7.4. • 5. At each time point, 100 μL of the solution was withdrawn. • 6. 900 μL acetonitrile was added to each sample. • 7. All samples centrifuged at 4° C. and 13,000 rpm. • 8. 100 μL of the supernatant was withdrawn; to this 100 μL of supernatant, 900 μL of acetonitrile was added and placed in LC vials for analysis. Tables 9, 10 and 11, and FIGS. 7a, 7b, 18, and 19 show the results.

A short description of series [6]: Bioavailability of CBD from suppository formulations containing CBD-Val-HS (Example 15). Format: in vivo. To be noted: cannulated rats, rectal suppository; PEG 1000 (7 mg) vs Wecobe W (6.125 or 4.625 mg). On the procedure:
CBD-Val-HS was formulated in both lipophilic (Wecobe W base) and hydrophilic (PEG 1000 base) suppository formulations. The formulations were administered to cannulated rats (100 mg suppository per rat) and blood samples were collected, centrifuged and the plasma separated for LC/MS/MS analysis. The amount of CBD in the plasma samples was quantified. The amount of CBD-Val-HS in the plasma samples was not quantified.

[7] abbreviates: rabbit eye, 90 min post topical, 250 μg CBD equivalent.

Entries after “also recorded” stand apart in the source; their conditions may differ. Where a name gives a salt, the structure may show the parent alone. Read-outs that look alike come from different tables or passages of the source.

Consider `CN1CC[C@]23c4c5ccc(O)c4O[C@H]2[C@@H](O)C=C[C@H]3[C@H]1C5.O=S(=O)(O)O` [morphine, Morphine sulfate], for which the “Effect on cisplatin-induced tactile allodynia (eVF paw withdrawal), in words” value in series [1] (Example 23, 0.1 mg/kg IP alone, 45 minutes prior to testing) is listed as “did not affect eVF responses”; in series [1] (Example 23, 2.5 mg/kg IP alone, 45 minutes prior to testing), “fully attenuated tactile allodynia”; in series [1] (Example 24, 0.1 mg/kg IP alone), “did not affect eVF responses”; in series [1] (Example 24, 2.5 mg/kg IP alone), “fully attenuated tactile allodynia”. Also, the “Conditioned place preference scores, in words” value in series [2] (morphine treated vs control group (vehicle+saline)) is reported as “higher preference scores compared to the control group”.
Consider `C=C(C)[C@@H]1CCC(C)=C[C@H]1c1c(O)cc(CCCCC)cc1O` [CBD, Cannabidiol], for which the “Maximum solubility achieved in Tocrisolve” value in series [3] is recorded as 1.19 % w/v. Also, the “Effect on cisplatin-induced tactile allodynia (eVF paw withdrawal), in words” value in series [1] (Example 23, 1.0 mg/kg CBD in combination with 0.1 mg/kg morphine, IP) is “did not further alter the anti-allodynic properties”; in series [1] (Example 23, 1.0 mg/kg IP alone, 45 minutes prior to testing), “modest attenuation of CIN”; in series [1] (Example 23, 2.0 mg/kg CBD in combination with 0.1 mg/kg morphine, IP) it was “attenuated tactile allodynia comparable to 2.5 mg/kg morphine”; in series [1] (Example 23, 2.0 mg/kg CBD in combination with 2.5 mg/kg morphine, IP), “not further enhanced”; in series [1] (Example 23, 2.0 mg/kg IP alone, 45 minutes prior to testing), “ineffective”. The concentration at 90 min in series [4] (retina-choroid, Table 2, rabbit eye, 250 μg CBD equivalent, read-out: Concentration of CBD in Retina Choroid) is 17.3 ± 6.5 ng/g. Moreover, the “Ocular tissue levels of the applied substance, in words (Example 13)” value in series [4] (rabbit eye, 90 min post topical, 0.25 mg CBD) is on record as “no levels in the tissues at all”. Besides, in series [4] (setting [7]), the “Ocular tissue levels, in words (Example 12)” value was “very low levels in the retina choroid”. In series [2] (morphine groups, IP, CBD 2.5-20.0 mg/kg, CBD-val-HS 10.0 mg/kg), the “Effect on morphine place preference, in words” value is on record as “dose-dependently decreased preference scores that approached significance at 10 mg/kg CBD; also recorded: showed a tendency to block the addictive effects of morphine”. Further, in series [2] (saline groups, IP, CBD 2.5-20.0 mg/kg, CBD-val-HS 10.0 mg/kg), the “Place preference or aversion of the substance itself, in words” value was “did not show neither place preference nor aversion”. Moreover, the “Concentration of CBD” value in series [5] (Acid (pH 1.2), Time Point 0) amounted to 656 ng/mL; in series [5] (Acid (pH 1.2), Time Point 15), 553 ng/mL; in series [5] (Acid (pH 1.2), Time Point 30), 204 ng/mL; in series [5] (Acid (pH 1.2), Time Point 60) it was 111 ng/mL; in series [5] (Acid (pH 1.2), Time Point 90), 91 ng/mL; in series [5] (Acid (pH 1.2), Time Point 120), 46 ng/mL. Further, the “Concentration of CBD” value in series [5] (Base (pH 7.4), Time Point 0) was 760 ng/mL; in series [5] (Base (pH 7.4), Time Point 15), 943 ng/mL; in series [5] (Base (pH 7.4), Time Point 30) it was 1015 ng/mL; in series [5] (Base (pH 7.4), Time Point 60) it was 1119 ng/mL; in series [5] (Base (pH 7.4), Time Point 90) it was 1081 ng/mL; in series [5] (Base (pH 7.4), Time Point 120), 975 ng/mL. Besides, the “Concentration of Δ^9-THC” value in series [5] (Acid (pH 1.2), Time Point 0) came to 38 ng/mL; in series [5] (Acid (pH 1.2), Time Point 15) it was 238 ng/mL; in series [5] (Acid (pH 1.2), Time Point 30), 243 ng/mL; in series [5] (Acid (pH 1.2), Time Point 60) it was 496 ng/mL; in series [5] (Acid (pH 1.2), Time Point 90), 625 ng/mL; in series [5] (Acid (pH 1.2), Time Point 120), 454 ng/mL. Also, the “Conversion to Δ^9-THC under acidic conditions, in words” value in series [5] (acidic conditions) was “converts to Δ^9-THC”. Besides, in series [5], the “Stability under acidic (gastric juice) conditions, in words” value was “partially converted to THC”. Besides, in series [5], the “Stability under physiologic / intestinal juice conditions, in words” value is “stable”.
With `C=C(C)C1CCC(C)=CC1c1c(OC(=O)[C@@H](N)C(C)C)cc(CCCCC)cc1OC(=O)[C@@H](N)C(C)C` (stereo partly shown) [CBD-di-Val, CBD-Di-Valinate], in series [4] (rabbit eye), the “Penetration into the ocular tissues, in words (Example 14)” value (shortened to “Penetration into the ocular tissues”) is “not adequate”.
For `C=C(C)C1CCC(C)=CC1c1c(OC(=O)[C@@H](NC(=O)CCC(=O)O)C(C)C)cc(CCCCC)cc1OC(=O)[C@@H](NC(=O)CCC(=O)O)C(C)C` (stereo partly shown) [CBD-VAL-HS], the concentration at 90 min in series [4] (retina-choroid, Table 4, Set 2, rabbit, dose 250 μg, read-out: Analog Concentration, Retina Choroid) was found to be 142 ± 76 ng/g.
Regarding CBD-Mono-Valinate [CBD-VAL-MONO], in series [3], the “Maximum solubility achieved in Tocrisolve” value is 1.41 % w/v and the “Maximum solubility achieved in Tocrisolve (In terms of CBD)” value is “(1.07) % w/v”.
As for `C=C(C)C1CCC(C)=CC1c1c(OC(=O)CCC(=O)O)cc(CCCCC)cc1OC(=O)CCC(=O)O` (stereo not shown) [CBD-HS, CBD-Di-Hemisuccinate], in series [3], the “Maximum solubility achieved in Tocrisolve” value is on record as 1.12 % w/v and the “Maximum solubility achieved in Tocrisolve (In terms of CBD)” value is given as “(0.7) % w/v”. Also, in series [4] (rabbit eye), the “Penetration into the ocular tissues” value is “not adequate”.
For `C=C(C)C1CCC(C)=CC1c1c(OC(=O)[C@@H](NC(=O)CCC(=O)O)C(C)C)cc(CCCCC)cc1OC(=O)[C@@H](NC(=O)CCC(=O)O)C(C)C` (stereo partly shown) [CBD-Val-HS, CBD-Di-Valinate-Di-Hemisuccinate], the “Plasma levels of CBD, hydrophilic base compared with lipophilic base, in words” value in series [6] is recorded as “Higher levels of CBD”. Moreover, the “Penetration into the ocular tissues” value in series [4] (rabbit eye) is given as “not adequate”. For the same compound, in series [5], the “Stability under acidic (gastric juice) conditions, in words” value is reported as “stable” and the “Stability under physiologic / intestinal juice conditions, in words” value is listed as “stable”.
On to `C=C(C)C1CCC(C)=CC1c1c(OC(=O)[C@@H](NC(=O)CCC(=O)O)C(C)C)cc(CCCCC)cc1OC(=O)[C@@H](NC(=O)CCC(=O)O)C(C)C` (stereo partly shown) [CBD-Val-HS], for which the concentration at 90 min turned out to be 24.6 ± 16.2 ng/g in series [4] (aqueous humor, Table 2, rabbit eye, 250 μg CBD equivalent, read-out: Concentration of CBD-Val-HS in Aqueous Humor); 417 ± 114 ng/g in series [4] (retina-choroid, Table 2, rabbit eye, 250 μg CBD equivalent, read-out: Concentration of CBD-Val-HS in Retina Choroid); 612 ± 264 ng/g in series [4] (vitreous humor, Table 2, rabbit eye, 250 μg CBD equivalent, read-out: Concentration of CBD-Val-HS in Vitreous Humor).
Consider `C=C(C)C1CCC(C)=CC1c1c(OC(=O)[C@@H](N)C(C)C)cc(CCCCC)cc1OC(=O)[C@@H](N)C(C)C` (stereo partly shown) [CBD-Val-HCl], for which, in series [3], the “Maximum solubility achieved in Tocrisolve” value turned out to be 2.04 % w/v and the “Maximum solubility achieved in Tocrisolve (In terms of CBD)” value is “(1.09) % w/v”. For the same compound, the concentration at 90 min in series [4] (retina-choroid, Table 2, rabbit eye, 250 μg CBD equivalent, read-out: Concentration of CBD-Val in Retina Choroid) was 9.1 ± 1.5 ng/g. In series [4] (setting [7]), the “Ocular tissue levels, in words (Example 12)” value is recorded as “very low levels in the retina choroid”.
